Test system: S. aureus FRI-1187
Type: cell-based, Staphylococcus aureus

With `OCCc1ccccc1` [Phenylethyl alcohol, phenylethyl alcohol] the “amount of exotoxin production from the FRI-1187 culture” value was “significantly reduced” and the “ELISA: TSST-1 ng/OD unit” value (0.5% test compound, S. aureus FRI-1187, Example 5) was “none”.
